Reference: the Kinase Knowledgebase extract (Sharma et al. 2016)

Biological target: MAPK14 (human) (UniProt Q16539)
Test: Inhibition of MAPK14 Kinase Activity

Sequence of MAPK14 (human) (Q16539 whole entry, looked up): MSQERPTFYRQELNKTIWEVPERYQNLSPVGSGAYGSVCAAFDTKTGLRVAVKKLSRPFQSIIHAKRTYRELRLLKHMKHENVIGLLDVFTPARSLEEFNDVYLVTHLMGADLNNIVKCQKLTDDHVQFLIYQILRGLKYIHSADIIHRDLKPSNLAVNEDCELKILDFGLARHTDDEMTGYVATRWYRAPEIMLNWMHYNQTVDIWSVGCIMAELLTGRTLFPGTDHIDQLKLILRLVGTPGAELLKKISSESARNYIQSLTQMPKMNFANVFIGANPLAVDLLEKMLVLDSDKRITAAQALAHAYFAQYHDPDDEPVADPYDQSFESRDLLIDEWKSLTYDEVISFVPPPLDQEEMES

SMILES	IC50
O=C(c1ccccc1)c1c(NC2CCCNC2)sc2c1ccc(=O)n2-c1ccccc1 (centres undefined)	< 2000 nM
Nc1sc2c(ccc(=O)n2-c2ccccc2)c1C(=O)c1cccc(OC(F)F)c1	< 2000 nM
CC(C)(C)OC(=O)Nc1sc2c(ccc(=O)n2-c2ccccc2)c1C(=O)c1ccccc1	< 2000 nM
CC(=O)Nc1sc2c(ccc(=O)n2-c2ccccc2)c1C(=O)c1cccc(Br)c1	< 2000 nM
Cc1cc(C(=O)c2c(NC3CNC3)sc3c2ccc(=O)n3-c2ccccc2)ccc1F	< 2000 nM
Cc1cc(C(=O)c2c(NC(=O)C3CCNCC3)sc3c2ccc(=O)n3-c2ccccc2F)ccc1F	< 2000 nM
CN(C)[C@H]1CCN(C(=O)Nc2sc3c(ccc(=O)n3-c3ccccc3)c2C(=O)c2ccccc2)C1	< 2000 nM
CNC(=O)c1sc2c(ccc(=O)n2-c2ccccc2)c1C(=O)c1ccccc1	< 2000 nM
CCOC(=O)c1sc2c(ccc(=O)n2-c2ccccc2)c1C(=O)c1ccccc1	< 2000 nM
CCOC(=O)c1sc2c(ccc(=O)n2-c2ccccc2)c1C(=O)c1cccc(Cl)c1	< 2000 nM
O=C(c1ccccc1)c1c(NC(=O)C2CCNCC2)sc2c1ccc(=O)n2CC1CC1	< 2000 nM
O=C(c1ccccc1)c1c(N2CCOCC2)sc2c1ccc(=O)n2-c1ccccc1	< 2000 nM
Cc1cccc(C(=O)c2c(NC(=O)OC(C)(C)C)sc3c2ccc(=O)n3-c2ccccc2)c1	< 2000 nM
O=C(c1ccccc1)c1c(N[C@H]2CCCNC2)sc2c1ccc(=O)n2-c1ccccc1	< 2000 nM
Cc1cccc(C(=O)c2c(N)sc3c2ccc(=O)n3-c2ccccc2)c1	< 2000 nM
NC(=O)c1sc2c(ccc(=O)n2-c2ccccc2)c1C(=O)c1cccc(Cl)c1	< 2000 nM
CC(C)(CO)NC(=O)Nc1sc2c(ccc(=O)n2-c2ccccc2Cl)c1C(=O)c1ccccc1	< 2000 nM
CCN1CC(Nc2sc3c(ccc(=O)n3-c3ccccc3)c2C(=O)c2ccccc2)C1	< 2000 nM
N#Cc1ccccc1C(=O)c1c(N)sc2c1ccc(=O)n2-c1ccccc1	< 2000 nM
Nc1sc2c(ccc(=O)n2-c2ccccc2)c1C(=O)c1cccc(OC(F)(F)F)c1	< 2000 nM
Nc1sc2c(ccc(=O)n2-c2ccccc2)c1C(=O)c1cccc(Br)c1	< 2000 nM
NC(=O)c1sc2c(ccc(=O)n2-c2ccccc2)c1C(=O)c1ccccc1	< 2000 nM
Cc1cc(C(=O)c2c(NC3CCNCC3)sc3c2ccc(=O)n3-c2ccccc2)ccc1F	< 2000 nM
CN1CC[C@H](NC(=O)Nc2sc3c(ccc(=O)n3-c3ccccc3)c2C(=O)c2ccccc2)C1	< 2000 nM
Cc1cc(C(=O)c2c(N)sc3c2ccc(=O)n3-c2ccccc2Cl)ccc1F	< 2000 nM

SMILES	IC50
CC(C)(CO)NC(=O)c1sc2c(ccc(=O)n2-c2ccccc2)c1C(=O)c1ccccc1	< 2000 nM
Cc1cc(C(=O)c2c(C(N)=O)sc3c2ccc(=O)n3-c2ccccc2)ccc1F	< 2000 nM
Cc1cc(C(=O)c2c(NC(=O)C3CCN(C)CC3)sc3c2ccc(=O)n3-c2c(F)cccc2F)ccc1F	< 2000 nM
CC(=O)Nc1sc2c(ccc(=O)n2CC2CC2)c1C(=O)c1ccccc1	< 2000 nM
O=C(c1ccccc1)c1c(C(=O)N2CCC[C@H]2CO)sc2c1ccc(=O)n2-c1ccccc1	< 2000 nM
Cc1cc(C(=O)c2c(N)sc3c2ccc(=O)n3-c2c(F)cccc2F)ccc1F	< 2000 nM
COc1ccc(C(=O)c2c(N)sc3c2ccc(=O)n3-c2ccccc2)cc1	< 2000 nM
CC(=O)Nc1sc2c(ccc(=O)n2-c2ccccc2F)c1C(=O)c1ccccc1	< 2000 nM
Cc1cccc(C(=O)c2c(NC(=O)N3CCN(C)CC3)sc3c2ccc(=O)n3-c2ccccc2)c1	< 2000 nM
Nc1sc2c(ccc(=O)n2-c2ccccc2)c1C(=O)c1nccs1	< 2000 nM
CN(C)c1ccc(-n2c(=O)ccc3c(C(=O)c4ccccc4)c(N)sc32)cn1	< 2000 nM
Cc1ccc(-n2c(=O)ccc3c(C(=O)c4ccc(F)c(C)c4)c(NC4CN(C)C4)sc32)cc1	< 2000 nM
CN1CCC[C@@H]1C(=O)Nc1sc2c(ccc(=O)n2-c2ccccc2)c1C(=O)c1ccccc1	< 2000 nM
COc1cccc(C(=O)c2c(NC(C)=O)sc3c2ccc(=O)n3-c2ccccc2)c1	< 2000 nM
Cc1cc(C(=O)c2c(N[C@@H]3CCN(C)C3)sc3c2ccc(=O)n3-c2ccccc2)ccc1F	< 2000 nM
Nc1sc2c(ccc(=O)n2-c2ccccc2)c1C(=O)c1ccccc1F	< 2000 nM
N#Cc1sc2c(ccc(=O)n2-c2ccccc2)c1C(=O)c1ccccc1	< 2000 nM
N[C@@H]1CCN(C(=O)Nc2sc3c(ccc(=O)n3-c3ccccc3)c2C(=O)c2ccccc2)C1	< 2000 nM
CN1CC(Nc2sc3c(ccc(=O)n3-c3c(F)cccc3F)c2C(=O)c2ccccc2)C1	< 2000 nM
Cc1cc(C(=O)c2c(NC3CNC3)sc3c2ccc(=O)n3CC2CC2)ccc1F	< 2000 nM
Cc1cc(C(=O)c2c(N[C@H]3CCN(C)C3)sc3c2ccc(=O)n3-c2ccccc2)ccc1F	< 2000 nM
CC(C)(O)CNC(=O)Nc1sc2c(ccc(=O)n2CC2CC2)c1C(=O)c1ccccc1	< 2000 nM
CCN1CCC(C(=O)Nc2sc3c(ccc(=O)n3-c3ccccc3)c2C(=O)c2ccccc2)CC1	< 2000 nM
CC(C)(CO)NC(=O)Nc1sc2c(ccc(=O)n2-c2ccccc2)c1C(=O)c1ccccc1	< 2000 nM
CCOC(=O)c1sc2c(ccc(=O)n2CC2CC2)c1C(=O)c1ccccc1	< 2000 nM

SMILES	IC50
Cc1ccc(C(=O)c2c(N)sc3c2ccc(=O)n3-c2ccccc2)cc1	< 2000 nM
CC(=O)Nc1sc2c(ccc(=O)n2-c2ccccc2)c1C(=O)c1cccc(Cl)c1	< 2000 nM
CC(=O)Nc1sc2c(ccc(=O)n2-c2ccccc2)c1C(=O)c1cccc(OC(F)F)c1	< 2000 nM
Cc1cccc(C(=O)c2c(C(=O)N3CCC3)sc3c2ccc(=O)n3-c2ccccc2)c1	< 2000 nM
CC(=O)Nc1sc2c(ccc(=O)n2CC2CC2)c1C(=O)c1ccc(F)c(C)c1	< 2000 nM
Nc1sc2c(ccc(=O)n2-c2ccccc2)c1C(=O)c1ccccc1OC(F)F	< 2000 nM
O=C(Nc1sc2c(ccc(=O)n2-c2ccccc2)c1C(=O)c1ccccc1)N[C@H]1CCNC1	< 2000 nM
Nc1sc2c(ccc(=O)n2-c2ccccc2)c1C(=O)c1ccc(F)c(Cl)c1	< 2000 nM
Cc1cccc(C(=O)c2c(C(N)=O)sc3c2ccc(=O)n3-c2ccccc2)c1	< 2000 nM
Cc1ccc(-n2c(=O)ccc3c(C(=O)c4ccc(F)c(C)c4)c(N)sc32)cc1	< 2000 nM
O=C(c1ccccc1)c1c(N2CC[C@@H](O)C2)sc2c1ccc(=O)n2-c1ccccc1	< 2000 nM
C[C@@H](Nc1sc2c(ccc(=O)n2-c2ccccc2)c1C(=O)c1ccccc1)C(N)=O	< 2000 nM
O=C(c1ccccc1)c1c(NC2CNC2)sc2c1ccc(=O)n2-c1c(F)cccc1F	< 2000 nM
Cc1cccc(C(=O)c2c(NC(=O)NCC(C)(C)O)sc3c2ccc(=O)n3-c2ccccc2)c1	< 2000 nM
CC(=O)Nc1sc2c(ccc(=O)n2-c2ccccc2)c1C(=O)c1cccc(OC(F)(F)F)c1	< 2000 nM
CC(=O)Nc1sc2c(ccc(=O)n2-c2ccccc2)c1C(=O)c1ccc(F)c(C)c1	< 2000 nM
Nc1sc2c(ccc(=O)n2-c2ccccc2)c1C(=O)c1ccc(Cl)cc1	< 2000 nM
O=C(c1ccccc1)c1c(NC(=O)C2CCNCC2)sc2c1ccc(=O)n2-c1ccccc1	< 2000 nM
Cc1ccc(-n2c(=O)ccc3c(C(=O)c4ccc(F)c(C)c4)c(NC4CNC4)sc32)cc1	< 2000 nM
Cc1cc(C(=O)c2c(NC(=O)NC(C)(C)CO)sc3c2ccc(=O)n3-c2ccccc2)ccc1F	< 2000 nM
Nc1sc2c(ccc(=O)n2-c2cccnc2)c1C(=O)c1ccccc1	< 2000 nM
COc1ccccc1C(=O)c1c(NC(C)=O)sc2c1ccc(=O)n2-c1ccccc1	< 2000 nM
CC(=O)Nc1sc2c(ccc(=O)n2-c2ccccc2)c1C(=O)c1cccs1	< 2000 nM
CC(C)N1CC(Nc2sc3c(ccc(=O)n3-c3ccccc3)c2C(=O)c2ccccc2)C1	< 2000 nM
Cc1cccc(C(=O)c2c(C(=O)O)sc3c2ccc(=O)n3-c2ccccc2)c1	< 2000 nM

SMILES	IC50
Cc1cc(C(=O)c2c(NC3CN(C)C3)sc3c2ccc(=O)n3-c2ccccc2)ccc1F	< 2000 nM
Cc1cc(C(=O)c2c(N)sc3c2ccc(=O)n3-c2ccccc2)ccc1F	< 2000 nM
CN1CC(CNc2sc3c(ccc(=O)n3-c3ccccc3)c2C(=O)c2ccccc2)C1	< 2000 nM
CC(=O)Nc1sc2c(ccc(=O)n2-c2ccccc2Cl)c1C(=O)c1ccccc1	< 2000 nM
Cc1cc(C(=O)c2c(N)sc3c2ccc(=O)n3CC2CC2)ccc1F	< 2000 nM
COc1ccccc1C(=O)c1c(N)sc2c1ccc(=O)n2-c1ccccc1	< 2000 nM
CN1CCC[C@H](Nc2sc3c(ccc(=O)n3-c3ccccc3)c2C(=O)c2ccccc2)C1	< 2000 nM
CN(C)CC(C)(C)CNc1sc2c(ccc(=O)n2-c2ccccc2)c1C(=O)c1ccccc1	< 2000 nM
Cc1cc(C(=O)c2c(NC(=O)N3CCN(C)CC3)sc3c2ccc(=O)n3-c2ccccc2)ccc1F	< 2000 nM
O=C(c1ccccc1)c1c(NC2CCNCC2)sc2c1ccc(=O)n2-c1ccccc1	< 2000 nM
COc1cccc(C(=O)c2c(NC3CCN(C)CC3)sc3c2ccc(=O)n3-c2ccccc2)c1	< 2000 nM
CC(=O)Nc1sc2c(ccc(=O)n2-c2ccccc2)c1C(=O)c1ccc(C)cc1	< 2000 nM
CN1CCC(C(=O)Nc2sc3c(ccc(=O)n3-c3ccccc3Cl)c2C(=O)c2ccccc2)CC1	< 2000 nM
CC(=O)Nc1sc2c(ccc(=O)n2-c2ccccc2)c1C(=O)c1ccccc1	< 2000 nM
O=C(c1ccccc1)c1c(NC(=O)[C@@H]2CCCN2)sc2c1ccc(=O)n2-c1ccccc1	< 2000 nM
Cc1cccc(C(=O)c2csc3c2ccc(=O)n3-c2ccccc2)c1	< 2000 nM
CC(=O)Nc1sc2c(ccc(=O)n2-c2ccccc2)c1C(=O)c1ccc(F)c(Cl)c1	< 2000 nM
Nc1sc2c(ccc(=O)n2-c2ccccc2)c1C(=O)c1cccc(Cl)c1	< 2000 nM
Cc1cc(C(=O)c2c(NC(=O)C3CCNCC3)sc3c2ccc(=O)n3-c2ccccc2)ccc1F	< 2000 nM
Cc1cc(C(=O)c2c(NC3CCN(C)CC3)sc3c2ccc(=O)n3-c2ccccc2)ccc1F	< 2000 nM
CCOc1ccc(C(=O)c2c(N)sc3c2ccc(=O)n3-c2ccccc2)cc1C	< 2000 nM
Cc1cccc(C(=O)c2c(NC(=O)N(C)C)sc3c2ccc(=O)n3-c2ccccc2)c1	< 2000 nM
CC(=O)Nc1sc2c(ccc(=O)n2-c2ccccc2)c1C(=O)c1ccccc1C	< 2000 nM
N#Cc1cccc(C(=O)c2c(N)sc3c2ccc(=O)n3-c2ccccc2)c1	< 2000 nM
